Where a name gives a salt, the structure may show the parent alone.
What follows are compounds tested on arachidonic acid (assay: Arachidonic Acid Antagonism Assay (AAAA)). Conditions: mice; 100 mg/kg; LD50 of sodium arachidonate.
Type: in vivo, mouse (Charles River male CF-1)
Procedure: While not necessary to determine arachidonic acid antagonism, the above assay has been modified as follows: Charles River male CF-1 mice weighing […] are treated IV with the test compound dissolved in 1.0% Tween-80 and 0.1% hydrochloric acid in distilled water. 0 2 ml total volume. Fifteen minutes later sodium arachidonate (90% pure) in physiological (normal) […] is injected into the tail vein. The LD50 is measured using the Spearman-Karber method with a log dose interval of 0.05 (N-6). Compounds which elevate the LD50 outside of the 95% confidence interval of the control LD50 are considered to be "active".

SMILES	% of Control LD50 [%]
CCN(CC)c1cc(N2CCN(C(=O)[C@@]3(O)CC[C@H]4[C@@H]5CCC6=CC(=O)CC[C@]6(C)[C@H]5CC[C@@]43C)CC2)nc(N(CC)CC)n1 [Example 57]	124

Same assay, conditions: mice; IV, 15 min before sodium arachidonate; outside 95% confidence interval of control LD50

SMILES	arachidonic acid antagonism (elevation of LD50 of arachidonic acid)
C[C@]12CCC(=O)C=C1CC[C@@H]1C2=CC[C@@]2(C)[C@H]1CC[C@]2(O)C(=O)CN1CCN(Cc2ccccn2)CC1 [Example 54, 17α-hydroxy-21-[4-(2-pyridinylmethyl)-1-piperazinyl]-pregna-4,9(11)-diene-3,20-dione(E)-2-butenedioate 1:1 salt]	demonstrate arachidonic acid antagonism
C=CCNc1nc(NCC=C)nc(N2CCN(CC(=O)[C@@]3(O)CC[C@H]4[C@@H]5CCC6=CC(=O)CC[C@]6(C)C5=CC[C@@]43C)CC2)n1.Cl.Cl.O [Example 60, 17α-hydroxy-21-[4-[4,6-bis(2-propenylamino)-1,3,5-triazin-2-yl]-1-piperazinyl]pregna-4,9(11)-diene-3,20-dione dihydrochloride hydrate]	demonstrate arachidonic acid antagonism
CCN(CC)c1cc(N2CCN(CC(=O)[C@@]3(O)CC[C@H]4[C@@H]5CCC6=CC(=O)CC[C@]6(C)[C@H]5CC[C@@]43C)CC2)nc(N(CC)CC)n1 [Example 53, 21-[4-[2,-bis(diethylamino)-4-pyrimidinyl]-1-piperazinyl]-17α-hydroxypregn-4-ene-3,20-dione]	demonstrate arachidonic acid antagonism
C[C@]12CC(=O)[C@H]3[C@@H](CCC4=CC(=O)CC[C@@]43C)[C@@H]1CC[C@@H]2C(=O)CN1CCN(c2ccccn2)CC1.Cl.O [Example 45, 21-[4-(2-pyridinyl)-1-piperazinyl]pregn-4-ene-3,11,20-trione hydrochloride hydrate]	demonstrate arachidonic acid antagonism
CCN(CC)c1cc(N2CCN(CC(=O)[C@@]3(O)CC[C@H]4[C@@H]5CCC6=CC(=O)C=C[C@]6(C)C5=CC[C@@]43C)CC2)nc(N(CC)CC)n1.Cl.Cl.O [Example 75, 21-[4-[2,6-bis(diethylamino)-4-pyrimidinyl]-1-piperazinyl]-17α-hydroxypregna-1,4,9(11)-triene-3,20-dione dihydrochloride hydrate]	demonstrate arachidonic acid antagonism
CCN(CC)c1cc(N2CCN(C(=O)[C@@]3(O)CC[C@H]4[C@@H]5CCC6=CC(=O)CC[C@]6(C)[C@H]5CC[C@@]43C)CC2)nc(N(CC)CC)n1 [Example 57]	demonstrate arachidonic acid antagonism
C[C@]12C=CC(=O)C=C1CC[C@@H]1C2=CC[C@@]2(C)[C@H]1CC[C@]2(O)C(=O)CN1CCN(c2cc(N3CCCC3)nc(N3CCCC3)n2)CC1.Cl.Cl.O [Example 74, 17α-hydroxy-21-[4-[2,6-di-(1-pyrrolidinyl)-4-pyrimidinyl]-1-piperazinyl]pregna-1,4,9(11)-triene-3,20-dione dihydrochloride hydrate]	demonstrate arachidonic acid antagonism
COc1cccc(N2CCN(CC(=O)[C@@]3(O)CC[C@H]4[C@@H]5CCC6=CC(=O)CC[C@]6(C)C5=CC[C@@]43C)CC2)n1.CS(=O)(=O)O [Example 22, 17α-hydroxy-21-[4-(6-methoxy-2-pyridinyl)-1-piperazinyl]pregna-4,9(11)-diene-3,20-dione monomethanesulfonate]	demonstrate arachidonic acid antagonism
CN1CCN(c2cc(N3CCN(CC(=O)[C@@]4(O)CC[C@H]5[C@@H]6CCC7=CC(=O)CC[C@]7(C)C6=CC[C@@]54C)CC3)nc(N3CCN(C)CC3)n2)CC1.CS(=O)(=O)O.O [Example 19, 17α-Hydroxy-21-[4-[2,6-bis(4-methyl 1 piperazinyl)-4-pyrimidinyl]-1-piperazinyl]pregna-4,9(11)-diene-3,20-dione methanesulfonate hydrate]	demonstrate arachidonic acid antagonism
COc1ccc(CCN(CC(=O)[C@@]2(O)CC[C@H]3[C@@H]4CCC5=CC(=O)CC[C@]5(C)C4=CC[C@@]32C)Cc2ccc(N(C)C)cc2)cc1OC [Example 51, 17α-hydroxy-21-[[2-(3,4-dimethoxyphenyl)ethyl]-4-(dimethylamino)phenyl]methyl]amino]pregna-4,9(11)-3,20-dione hydrochloride]	demonstrate arachidonic acid antagonism
C[C@]12C=CC(=O)C=C1CC[C@@H]1[C@@H]2[C@@H](O)C[C@@]2(C)[C@H]1CC[C@]2(O)C(=O)CN1CCN(c2ccccn2)CC1 [Example 25, 11β,17α-dihydroxy-21-[4-(2-pyridinyl)-1-piperazinyl]-pregna-1,4-diene-3,20-dione dihydrochloride]	demonstrate arachidonic acid antagonism
C[C@]12CCC(=O)C=C1CC[C@@H]1[C@@H]2[C@H](O)C[C@@]2(C)[C@H]1CC[C@]2(O)C(=O)CN1CCN(c2ccc(F)cc2)CC1 [Example 29, 21-[4-(4-fluorophenyl)-1-piperazinyl]-11α,17α-dihydroxypregn-4-ene-3,20-dione dihydrochloride]	demonstrate arachidonic acid antagonism

These compounds were tested on angiogenesis (assay: fertile egg or chick embryo assay of Folkman (inhibition of angiogenesis / tumor growth)). Conditions: chick embryo; 50 μg/10 μl in the presence of heparin.
Type: in vivo
Procedure: According to this procedure compounds which are considered to be "active" (i.e, antiangiogenic) give an avascular zone of 4 mm or greater in some embryos when tested at 50 μg/10 μl in the presence of 50 μg/10 μ of heparin.

SMILES	% of Embryos with 4 mm or Greater A vascular Zone [%]
COc1ccccc1N1CCN(CC(=O)[C@@]2(O)CC[C@H]3[C@@H]4CCC5=CC(=O)CC[C@]5(C)[C@H]4CC[C@@]32C)CC1.Cl.Cl.O [Example 41, 17α-hydroxy-21-[4-(2-methoxyphenyl)-1-piperazinyl]-pregn-4-ene-3,20-dione dihydrochloride hydrate]	80
C[C@]12CCC(=O)C=C1CC[C@@H]1[C@@H]2C(=O)C[C@@]2(C)[C@H]1CC[C@]2(O)C(=O)CN1CCN(c2ccccn2)CC1 [Example 20]	72
C[C@H]1C[C@H]2[C@@H]3CC[C@H]4CC(=O)CC[C@]4(C)C3=CC[C@]2(C)[C@@]1(O)C(=O)CN1CCN(c2ccccn2)CC1.Cl.Cl.O [Example 44, 17α-hydroxy-16β-methyl-21-[4-(2-pyridinyl)-1-piperazinyl]-5α-pregn-9(11)-ene-3,20-dione dihydrochloride hydrate]	75

Same assay, conditions: chick embryo; 50 μg/10 μl with heparin; avascular zone 4 mm or greater

SMILES	inhibition of angiogenesis
COc1ccc(N2CCN(CC(=O)[C@@]3(O)CC[C@H]4[C@@H]5CCC6=CC(=O)CC[C@]6(C)[C@H]5[C@H](OC(=O)CC(C)(C)C)C[C@@]43C)CC2)cc1 [Example 32, 11α,17α-dihydroxy-21-[4-(4-methoxyphenyl)-1-piperazinyl]pregn-4-ene-3,20-dione 11-(3,3-dimethyl 1-butyrate) dihydrochloride]	demonstrate inhibition of angiogenesis
COc1ccc(N2CCN(CC(=O)[C@@]3(O)CC[C@H]4[C@@H]5C[C@H](C)C6=CC(=O)C=C[C@]6(C)[C@H]5[C@@H](O)C[C@@]43C)CC2)cc1 [Example 33, 11β,17α-dihydroxy-21-[4-(4-methoxyphenyl)-1-piperazinyl]-6α-methylpregna-1,4-diene-3,20-dione dihydrochloride]	demonstrate inhibition of angiogenesis
C[C@]12C[C@@H](O)[C@H]3[C@@H](CCC4=CC(=O)CC[C@@]43C)[C@@H]1CC[C@@H]2C(=O)CN1CCN(c2ccccn2)CC1.Cl.Cl [Example 36, 11α-hydroxy-21-[4-(2-pyridinyl)-1-piperazinyl]pregn-4-ene-3,20-dione, dihydrochloride]	demonstrate inhibition of angiogenesis
C[C@]12CCC(=O)C=C1CC[C@@H]1[C@@H]2C(=O)C[C@@]2(C)[C@H]1CC[C@]2(O)C(=O)CN1CCN(c2ccccn2)CC1 [Example 20]	demonstrate inhibition of angiogenesis
CCN(CC)c1cc(N2CCN(CC(=O)[C@@]3(O)CC[C@H]4[C@@H]5C[C@H](C)C6=CC(=O)C=C[C@]6(C)C5=CC[C@@]43C)CC2)nc(N(CC)CC)n1 [Example 63, 21-[4-[2,6-bis(diethylamino)-4-pyrimidinyl]-1-piperazinyl]-17α-hydroxy-6α-methylpregna-1,4,9(11)-triene-3,20-dione(E)-2-butenedioate (1:1) salt]	demonstrate inhibition of angiogenesis
C[C@]12CCC(=O)C=C1CC[C@@H]1C2=CC[C@@]2(C)[C@H]1CC[C@]2(O)C(=O)CN1CCN(c2cc(N3CCCC3)nc(N3CCCC3)n2)CC1 [Example 64, 17α-hydroxy-21-[4-[2,6-bis(1-pyrrolidinyl)-4-pyrimidinyl]-1-piperazinyl]pregna-4,9(11)-diene-3,20-dione (E)-2-butenedioate (1:1) salt]	demonstrate inhibition of angiogenesis
C[C@]12CC[C@@H](O)C[C@H]1CC[C@@H]1[C@@H]2C(=O)C[C@@]2(C)[C@H]1CC[C@]2(O)C(=O)CN1CCN(c2ccccn2)CC1 [Example 99, 3α,17α-dihydroxy-21-[4-(2-pyridinyl)-1-piperazinyl]-5β-pregnane-11,20-dione dihydrochloride hydrate]	demonstrate inhibition of angiogenesis
COc1ccc(CCNCC(=O)[C@@]2(O)CC[C@H]3[C@@H]4C[C@H](C)C5=CC(=O)C=C[C@]5(C)[C@H]4[C@@H](O)C[C@@]32C)cc1OC [Example 34, 11β,17α-dihydroxy-21-[[2-(3,4-dimethoxyphenyl)ethyl]-amino]-6α-methylpregna-1,4-diene-3,20-dione hydrochloride]	demonstrate inhibition of angiogenesis
C[C@]12CCC(=O)C=C1CC[C@@H]1C2=CC[C@@]2(C)[C@H]1CC[C@]2(O)C(=O)CN1CCN(C(=O)c2ccco2)CC1 [Example 6B, 17α-Hydroxy-21-[4-(2-furonylcarbonyl)-1-piperazinyl]-pregna-4,9(11)-diene-3,20-dione]	demonstrate inhibition of angiogenesis
